# Patent US8192854B2, “Microbial fuel cell treatment of ethanol fermentation process water” (priority 2009, dated 2012)
# Test system: inhibitor-consuming microbial consortium in a microbial fuel cell (MFC-A)
# Test: Effect of inhibitor concentration on electricity production, air-cathode MFC
# Conditions: 0.1 g/L to 2 g/L (20.8 mM)
# Procedure: After confirmation of electricity production from individual inhibitor molecules, the effect of inhibitor concentration on their removal and electricity production was studied. The experiments were conducted by adding each of the substrates individually, at the various concentrations to study substrate inhibition. From day 51 to 62, HB was used as the energy source for the MFC at concentrations from 0.1 to 1 g/L. From day 63 to day 82, 2-furfural was used as the energy source at a concentration from 0.05 to 2 g/L. From day 83 to day 101, VA was used as the substrate from 0.05 to 4 g/L, followed by use of HMF as substrate from day 129 to day 150 at a concentration from 0.2 to 2 g/L. The MFC was operated with 2-furfural as the substrate between day 102 to 128. Effect of acetate was studied in MFC-B up to a concentration of 10 g/L. The voltage output was monitored at each concentration for a period of up to five days. The effect of 2-furfural on electricity production was studied at a concentration from 0.1 g/L to 2 g/L (20.8 mM) using an air-cathode MFC. […] It should be noted that the substrate utilization was limited by the cathode side in an air-cathode MFC used in this study. […] The effect of acetate concentration was also studied in a different MFC (MFC-B) using a consortium enriched on acetate.
smiles,measurement,value
O=Cc1ccco1 [2-furfural],inhibition of electricity production,No inhibition
